Data taken from article PMC6156125, “Chemistry and Hypoglycemic Activity of GPR119 Agonist ZB-16” (Frontiers in Endocrinology, 2018).

Tested on: rats with streptozotocin-nicotinamide (STZ-NA) induced T2D
Experiment: Hypoglycemic activity after continuous (28 days) oral administration in T2D rat model, OGTT
Format: in vivo
Procedure: Procedures were performed in 40 female Wistar rats weighing 250–280 g. Streptozotocin-nicotinamide-induced rat model of T2D was used ([24], [25]). Briefly, streptozotocin (Sigma, St. Louis, MO, USA) was administered i.p. to overnight fasted rats (65 mg/kg in 100 mmol/l citrate buffer, Ph 4.5). Nicotinamide (Sigma, St. Louis, MO, USA) (230 mg/kg) dissolved in saline was administered i.p. 15 min before streptozotocin. STZ-NA T2D had been confirmed 72 h after in rats with blood glucose levels in a range 9–14 mmol/l measured in fasting (6 h) conditions. […] Following the continuous oral administration of sitagliptin (10 mg/kg), ZB-16 (1 mg/kg) or saline during 28 days STZ-NA T2D confirmation the fasting blood glucose levels were measured, and oral glucose tolerance test (OGTT) was performed. For OGTT rats received an oral dose of […] glucose dissolved in saline; blood glucose levels were monitored every 30 min for 2 h after glucose administration. Sitagliptin dose was chosen in accordance with published data ([26]).

SMILES: O=S1(=O)COc2cc(-c3ccc(OCC4CCN(c5ncc(Cl)cn5)CC4)c(F)c3)ccc21 [ZB-16]
- reduction in the area under the glucose concentration-time curve compared to the control group (OGTT on day 28, 1 mg/kg/day oral): 22%
- blood glucose levels lower than in saline group (OGTT on day 28, 1 mg/kg/day oral, 30 min after oral glucose (3 mg/kg)): 27%
- mean blood glucose level (OGTT on day 28, 1 mg/kg/day oral, two hours after glucose administration): 9.1 ± 0.37 mmol/L
- blood glucose levels (daily oral ZB-16 1 mg/kg or sitagliptin 10 mg/kg for 28 days, STZ-NA T2D): reduction
